Test results published in patent US7294687B2, “Parenteral formulations of a peptide for the treatment of systemic lupus erythematosus” (TEVA Pharmaceutical Industries, Ltd., priority 2003, dated 2007).
Like-named read-outs stand apart in the source and are kept apart here.

Test: Solubility of Compound 1 peptide, formulation development
Assay type: physicochemical
Text: In order to develop a formulation for sub-cutaneous injection, it is also desirable that the pH be in the range of 4 to 9 and that the solution be iso-osmotic.
The pH was adjusted if needed.

H-GYYWSWIRQPPGKGEEWIG-OH [Compound 1]
solubility (only above pH 9.2 and below pH 3.0, buffers and pH adjustment agents, read-out: solubility levels): ≥ 2000 µg/mL
solubility (water (aqueous solution), acetate salt, read-out: aqueous solubility of the peptide): < 500 µg/mL
